Experimental data taken from US20120196748A1, “PESTICIDAL COMPOSITION” (SYNGENTA LIMITED, priority 2009, published 2012).

How the values were obtained:
[1] = Soil mobility of herbicides, uptake by concentric PDMS rings; type: physicochemical; conditions: 7 days after application, sandy loam soil, moisture content 26.3%
Method: The soil mobility of various herbicides were examined in sandy loam soil with a moisture content of 26.3%. Three concentric PDMS (polydimethyl siloxane) rings having diameters of 2, 4 and 6 cm, respectively were placed in the soil at three different depths at 0.5 cm apart. 1 ml of a herbicide solution is injected in the center of the rings. The uptake of the herbicide by the rings were analysed 7 days after herbicide application.

weeds = test: Field weed control by clomazone-treated wheat seeds; type: in vivo; conditions: field at Möhlin, 64 days after planting
Method: Two different types of wheat seeds were used, i.e. Match and Steme. The treated wheat seeds were sown in the field (at Möhlin in Swtzerland). 64 days after planting the control of weeds was analysed.

[2] = uptake by PDMS ring of 2 cm diameter
[3] = uptake by PDMS ring of 4 cm diameter

CCCN(CCC)C(=O)SCC [EPTC]
Percentage of totally applied herbicide (%) [1, 2]: 12.70%
Percentage of totally applied herbicide (%) [1, 3]: 5.56%
Percentage of totally applied herbicide (%) ([1]; uptake by PDMS ring of 6 cm diameter): 0.97%

CC1(C)CON(Cc2ccccc2Cl)C1=O [Clomazone]
Percentage of totally applied herbicide (%) [1, 2]: 0.36%
Weed control (%) (weeds; wheat seed type Match): 95%
Weed control (%) (weeds; wheat seed type Steme): 95%

CCCN(CCC)c1c([N+](=O)[O-])cc(C(F)(F)F)cc1[N+](=O)[O-] [Trifluralin]
Percentage of totally applied herbicide (%) [1, 2]: 0.62%
Percentage of totally applied herbicide (%) [1, 3]: 0.02%

CCOCN(C(=O)CCl)c1c(C)cccc1CC [Acetochlor]
Percentage of totally applied herbicide (%) [1, 2]: 0.14%

CCc1cccc(C)c1N(C(=O)CCl)[C@@H](C)COC [S-metalochlor]
Percentage of totally applied herbicide (%) [1, 2]: 0.11%
